Measurements: patent US4853412A, “N-[[6-methoxy-5-(trifluoromethyl)-1-naphthalenyl]-[substituted imino]methyl]-n-methylglycines” (American Home Products Corporation, priority 1987, dated 1989)

Key:
aldose reductase = target: T1, aldose reductase (Bos taurus, UniProt P16116); experiment: in vitro inhibition of aldose reductase from bovine lens (modified Hayman and Kinoshita procedure); type: biochemical; settings: 10^-7 M
T1 construct: preparation of the enzyme from bovine lens; from tissue; host or cells: bovine lens
Experimental: Only two minor reagent changes were made: (a) The rinsing mixture was an aqueous 5% (w/v) trichloroacetic acid solution and (b) the stock solution was prepared by dissolving 25 mg of dulcitol in 100 mL of an aqueous trichloroacetic acid solution. [N.B.: For each experiment the average value found in the tissue from rats fed the glucose diet was subtracted from the individual values found in the corresponding tissue in galactose-fed rats to obtain the amount of polyol accumulated.] […] In the present case the procedure of Hayman and Kinoshita was modified in that the final chromatography step was omitted in the preparation of the enzyme from bovine lens.

[1] = system: sciatic nerves of rats fed galactose; experiment: galactosemic rats: lowering of galactitol (dulcitol) accumulation in the sciatic nerve; type: in vivo, rat (Sprague-Dawley); settings: for % lowering dulcitol accumulation in vivo, N (sciatic nerve): four days, vs untreated galactosemic rats
Excerpt: (§1) The aldose reductase inhibiting property of the compounds of this invention and the utilization of the compounds in preventing, diminishing and alleviating diabetic complications by lowering polyols accumulation are demonstrable in experiments using galactosemic rats, see Dvornik et al, Science, 182, 1146 (1973). Such experiments are exemplified hereinbelow after the listing of the following general comments pertaining to these experiments:
(§2) (a) Four or more groups of six male rats, 50-70 g, Sprague-Dawley strain, were used. The first group, the control group, was fed a mixture of laboratory chow (rodent Laboratory Chow, Purina) and glucose at 20% (w/w %) concentration. The untreated galactosemic group and the drug-treated groups were fed a similar diet in which galactose is substituted for glucose. The test compound was either admixed to the diet or administered by gavage. In experiments involving compound administration in the diet, the average dose administered was calculated from the actual food intake of the animals in each group. The concentration of galactose in the diet of the treated groups was the same as that for the untreated galactosemic group.
(§3) (b) After four days, the animals were killed by decapitation. The eyeballs were removed and punctured with a razor blade; the freed lenses were rolled gently on filter paper and weighed. The sciatic nerves were dissected as completely as possible and weighed. Both tissues when frozen can be kept up to two weeks before being analyzed for galactitol.
(§4) (c) The polyol determination was performed by a modification of the procedure of M. Kraml and L. Cosyns, Clin. Biochem., 2,373 (1969). Only two minor reagent changes were made: (a) The rinsing mixture was an aqueous 5% (w/v) trichloroacetic acid solution and (b) the stock solution was prepared by dissolving 25 mg of dulcitol in 100 mL of an aqueous trichloroacetic acid solution. [N.B.: For each experiment the average value found in the tissue from rats fed the glucose diet was subtracted from the individual values found in the corresponding tissue in galactose-fed rats to obtain the amount of polyol accumulated.] The aldose reductase inhibiting effects of the compounds of formula (I) were also tested by employing an in vitro testing procedure similar to that described by S. Hayman and J. H. Kinoshita, J. Biol. Chem., 240, 877 (1965). In the present case the procedure of Hayman and Kinoshita was modified in that the final chromatography step was omitted in the preparation of the enzyme from bovine lens.
(§5) The figures under L and N represent the percentage decrease of galactitol accumulation in the tissues of the lens and sciatic nerve, respectively, for treated rats as compared to untreated rats.

[2] = system: lenses of rats fed galactose; experiment: galactosemic rats: lowering of galactitol (dulcitol) accumulation in the lens; type: in vivo, rat (Sprague-Dawley); settings: four days, vs untreated galactosemic rats
Excerpt: as §1, §2, §3, §4, §5

Q: `COc1ccc2c(C(=NS(=O)(=O)C(F)(F)F)N(C)CC(=O)O)cccc2c1C(F)(F)F` [Example 5, N-[[6-Methoxy-5-(trifluoromethyl)-1-naphthalenyl][[(trifluoromethyl)sulfonyl]imino]methyl]-N-methylglycine] was tested. Which inhibition at 0.1 µM (aldose reductase) did it give?
A: The inhibition at 0.1 µM was 69%.

Q: What about the “% lowering dulcitol accumulation in vivo, N (sciatic nerve)” value ([1]; 56 mg/kg/day p.o.) of the same compound?
A: The value was 0%.

Q: What about the “% lowering dulcitol accumulation in vivo, L (lens)” value ([2]; 56 mg/kg/day p.o.) of the same compound?
A: The value was 0%.

Q: `COc1ccc2c(C(=S)N(C)CC(=O)O)cccc2c1C(F)(F)F` [tolrestat, N-[[6-methoxy-5-(trifluoromethyl)-1-naphthalenyl]thioxomethyl]-N-methylglycine, reference compound] was tested. Which “% lowering dulcitol accumulation in vivo, N (sciatic nerve)” value ([1]; 6.4 mg/kg/day p.o.) did it give?
A: Its value is 50%.

Q: And the “% lowering dulcitol accumulation in vivo, L (lens)” value ([2]; 6.4 mg/kg/day p.o.)?
A: Its value is 0%.

Q: `COc1ccc2c(C(=NS(=O)(=O)c3ccc(Br)cc3)N(C)CC(=O)O)cccc2c1C(F)(F)F` [Example 6, N-[[[(4-Bromophenyl)sulfonyl]imino][6-methoxy-5-(trifluoromethyl)-1-naphthalenyl]methyl]-N-methylglycine] was tested. Which inhibition at 0.1 µM (aldose reductase) did it give?
A: Its inhibition at 0.1 µM is 5%.

Q: And the “% lowering dulcitol accumulation in vivo, N (sciatic nerve)” value ([1]; 55 mg/kg/day p.o.)?
A: Its value is 0%.

Q: And the “% lowering dulcitol accumulation in vivo, L (lens)” value ([2]; 55 mg/kg/day p.o.)?
A: The value was 0%.

Q: With `COc1ccc2c(C(=NC#N)N(C)CC(=O)O)cccc2c1C(F)(F)F` [Example 4, N-[(Cyanoimino)[6-methoxy-5-(trifluoromethyl)-1-naphthalenyl]methyl]-N-methylglycine] as the compound, how does the inhibition at 0.1 µM (aldose reductase) read?
A: The inhibition at 0.1 µM was 80%.

Q: And the “% lowering dulcitol accumulation in vivo, N (sciatic nerve)” value ([1]; 26 mg/kg/day p.o.)?
A: The value was 30%.

Q: And the “% lowering dulcitol accumulation in vivo, N (sciatic nerve)” value ([1]; 100 mg/kg/day p.o.)?
A: Its value is 61%.

Q: What about the “lowering of polyol accumulation compared with tolrestat (in words)” value ([1]; 100 mg/kg/day vs tolrestat at 6.4 mg/kg/day) of the same compound?
A: The value was “comparable results”.

Q: What about the “% lowering dulcitol accumulation in vivo, L (lens)” value ([2]; 26 mg/kg/day p.o.) of the same compound?
A: Its value is 0%.

Q: What about the “% lowering dulcitol accumulation in vivo, L (lens)” value ([2]; 100 mg/kg/day p.o.) of the same compound?
A: The value was 0%.
